{
  "source": "PubChem BioAssay AID2060900",
  "about": "(Molecular Pharmacology Branch, DTP, NCI, 2025)",
  "data": [
    {"test_system": "521955-158-R2-J5-PDC complex spheroids, viability", "assay": "Anticancer human tumor 521955-158-R2-J5-PDC patient-derived pancreatic carcinoma cell line growth inhibition [RAS]", "conditions": "second compound 0.0316 µM; first compound 0.1 µM; hits give low values", "procedure,_shortened": "(§1)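 Multi-cell-type spheroids: tumor cells plus HUVEC endothelial cells and mesenchymal stem cells. RAS-pathway inhibitors were combined with targeted agents, each dosed in half-log steps down from clinical Cmax, or from 10 microM when Cmax was unknown.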", "units": {"viability, T/C": "%"}, "values": [
      {"smiles": "O=C(c1ccc(F)c(F)c1Nc1ccc(I)cc1F)N1CC(O)([C@@H]2CCCCN2)C1", "note": "+ C=CC(=O)N1CCN(c2nc(OCC3CCCN3C)nc3c(F)c(-c4nc(N)cc(C)c4C(F)(F)F)c(Cl)cc23)C(C)C1", "viability, T/C": 47.2}
    ]},
    {"test_system": "521955-158-R2-J5-PDC complex spheroids, viability", "assay": "Anticancer human tumor 521955-158-R2-J5-PDC cell line growth inhibition [RAS];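 note: spheroids also contain HUVEC endothelial cells and mesenchymal stem cells as stroma; compound exposure lasted seven days before the viability read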", "conditions": "second compound 0.0316 µM; first compound 0.316 µM; hits give low values", "procedure,_shortened": "as §1", "units": {"viability, T/C": "%"}, "values": [
      {"smiles": "CC(C)NCC(C(=O)N1CCN(c2ncnc3c2C(C)CC3O)CC1)c1ccc(Cl)cc1", "note": "(stereo unspecified) + C=CC(=O)N1CCN(c2nc(OCC3CCCN3C)nc3c(F)c(-c4nc(N)cc(C)c4C(F)(F)F)c(Cl)cc23)C(C)C1", "viability, T/C": 91.8},
      {"smiles": "CC(Nc1ccc2c(c1)OCCn1cc(N3C(=O)OCC3C(F)F)nc1-2)C(N)=O", "note": "(stereo unspecified) + C=CC(=O)N1CCN(c2nc(OCC3CCCN3C)nc3c(F)c(-c4nc(N)cc(C)c4C(F)(F)F)c(Cl)cc23)C(C)C1", "viability, T/C": 43.5},
      {"smiles": "C[C@@H](NC(=O)c1ncnc(N)c1Cl)c1ncc(C(=O)Nc2cc(C(F)(F)F)c(Cl)cn2)s1", "note": "+ C=CC(=O)N1CCN(c2nc(OCC3CCCN3C)nc3c(F)c(-c4nc(N)cc(C)c4C(F)(F)F)c(Cl)cc23)C(C)C1", "viability, T/C": 92.8},
      {"smiles": "O=C(c1ccc(F)c(F)c1Nc1ccc(I)cc1F)N1CC(O)([C@@H]2CCCCN2)C1", "note": "+ C=CC(=O)N1CCN(c2nc(OCC3CCCN3C)nc3c(F)c(-c4nc(N)cc(C)c4C(F)(F)F)c(Cl)cc23)C(C)C1", "viability, T/C": 33.2}
    ]},
    {"test_system": "521955-158-R2-J5-PDC complex spheroids, viability", "assay": "Anticancer human tumor 521955-158-R2-J5-PDC cell line growth inhibition [RAS];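 note: spheroids also contain HUVEC endothelial cells and mesenchymal stem cells as stroma; compound exposure lasted seven days before the viability read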", "conditions": "second compound 0.0316 µM; first compound 1 µM; hits give low values", "procedure,_shortened": "as §1", "units": {"viability, T/C": "%"}, "values": [
      {"smiles": "CC(C)NCC(C(=O)N1CCN(c2ncnc3c2C(C)CC3O)CC1)c1ccc(Cl)cc1", "note": "(stereo unspecified) + C=CC(=O)N1CCN(c2nc(OCC3CCCN3C)nc3c(F)c(-c4nc(N)cc(C)c4C(F)(F)F)c(Cl)cc23)C(C)C1", "viability, T/C": 94.7},
      {"smiles": "CC(Nc1ccc2c(c1)OCCn1cc(N3C(=O)OCC3C(F)F)nc1-2)C(N)=O", "note": "(stereo unspecified) + C=CC(=O)N1CCN(c2nc(OCC3CCCN3C)nc3c(F)c(-c4nc(N)cc(C)c4C(F)(F)F)c(Cl)cc23)C(C)C1", "viability, T/C": 53.3},
      {"smiles": "C[C@@H](NC(=O)c1ncnc(N)c1Cl)c1ncc(C(=O)Nc2cc(C(F)(F)F)c(Cl)cn2)s1", "note": "+ C=CC(=O)N1CCN(c2nc(OCC3CCCN3C)nc3c(F)c(-c4nc(N)cc(C)c4C(F)(F)F)c(Cl)cc23)C(C)C1", "viability, T/C": 129},
      {"smiles": "O=C(c1ccc(F)c(F)c1Nc1ccc(I)cc1F)N1CC(O)([C@@H]2CCCCN2)C1", "note": "+ C=CC(=O)N1CCN(c2nc(OCC3CCCN3C)nc3c(F)c(-c4nc(N)cc(C)c4C(F)(F)F)c(Cl)cc23)C(C)C1", "viability, T/C": 21.5}
    ]},
    {"test_system": "521955-158-R2-J5-PDC complex spheroids, viability", "assay": "Anticancer human tumor 521955-158-R2-J5-PDC cell line growth inhibition [RAS];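 note: spheroids also contain HUVEC endothelial cells and mesenchymal stem cells as stroma; compound exposure lasted seven days before the viability read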", "conditions": "second compound 0.0316 µM; first compound 3.16 µM; hits give low values", "procedure,_shortened": "as §1", "units": {"viability, T/C": "%"}, "values": [
      {"smiles": "CC(C)NCC(C(=O)N1CCN(c2ncnc3c2C(C)CC3O)CC1)c1ccc(Cl)cc1", "note": "(stereo unspecified) + C=CC(=O)N1CCN(c2nc(OCC3CCCN3C)nc3c(F)c(-c4nc(N)cc(C)c4C(F)(F)F)c(Cl)cc23)C(C)C1", "viability, T/C": 61.2},
      {"smiles": "CC(Nc1ccc2c(c1)OCCn1cc(N3C(=O)OCC3C(F)F)nc1-2)C(N)=O", "note": "(stereo unspecified) + C=CC(=O)N1CCN(c2nc(OCC3CCCN3C)nc3c(F)c(-c4nc(N)cc(C)c4C(F)(F)F)c(Cl)cc23)C(C)C1", "viability, T/C": 30.4},
      {"smiles": "C[C@@H](NC(=O)c1ncnc(N)c1Cl)c1ncc(C(=O)Nc2cc(C(F)(F)F)c(Cl)cn2)s1", "note": "+ C=CC(=O)N1CCN(c2nc(OCC3CCCN3C)nc3c(F)c(-c4nc(N)cc(C)c4C(F)(F)F)c(Cl)cc23)C(C)C1", "viability, T/C": 80.7}
    ]},
    {"test_system": "521955-158-R2-J5-PDC complex spheroids, viability", "assay": "Anticancer human tumor 521955-158-R2-J5-PDC cell line growth inhibition [RAS];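 note: spheroids also contain HUVEC endothelial cells and mesenchymal stem cells as stroma; compound exposure lasted seven days before the viability read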", "conditions": "second compound 0.0316 µM; first compound 10 µM; hits give low values", "procedure,_shortened": "as §1", "units": {"viability, T/C": "%"}, "values": [
      {"smiles": "CC(C)NCC(C(=O)N1CCN(c2ncnc3c2C(C)CC3O)CC1)c1ccc(Cl)cc1", "note": "(stereo unspecified) + C=CC(=O)N1CCN(c2nc(OCC3CCCN3C)nc3c(F)c(-c4nc(N)cc(C)c4C(F)(F)F)c(Cl)cc23)C(C)C1", "viability, T/C": 55.1},
      {"smiles": "CC(Nc1ccc2c(c1)OCCn1cc(N3C(=O)OCC3C(F)F)nc1-2)C(N)=O", "note": "(stereo unspecified) + C=CC(=O)N1CCN(c2nc(OCC3CCCN3C)nc3c(F)c(-c4nc(N)cc(C)c4C(F)(F)F)c(Cl)cc23)C(C)C1", "viability, T/C": 19.7},
      {"smiles": "C[C@@H](NC(=O)c1ncnc(N)c1Cl)c1ncc(C(=O)Nc2cc(C(F)(F)F)c(Cl)cn2)s1", "note": "+ C=CC(=O)N1CCN(c2nc(OCC3CCCN3C)nc3c(F)c(-c4nc(N)cc(C)c4C(F)(F)F)c(Cl)cc23)C(C)C1", "viability, T/C": 53.2}
    ]},
    {"test_system": "521955-158-R2-J5-PDC complex spheroids, viability", "assay": "Anticancer human tumor 521955-158-R2-J5-PDC cell line growth inhibition [RAS]", "conditions": "second compound 0.1 µM; first compound 0.000316 µM; hits give low values", "procedure,_shortened": "as §1", "units": {"viability, T/C": "%"}, "values": [
      {"smiles": "CC(C)n1nc(-c2ccc3oc(N)nc3c2)c2c(N)ncnc21", "note": "+ C=CC(=O)N1CCN(c2nc(OCC3CCCN3C)nc3c(F)c(-c4nc(N)cc(C)c4C(F)(F)F)c(Cl)cc23)C(C)C1", "viability, T/C": 141}
    ]},
    {"test_system": "521955-158-R2-J5-PDC complex spheroids, viability", "assay": "Anticancer human tumor 521955-158-R2-J5-PDC cell line growth inhibition [RAS]", "conditions": "second compound 0.1 µM; first compound 0.001 µM; hits give low values", "procedure,_shortened": "as §1", "units": {"viability, T/C": "%"}, "values": [
      {"smiles": "CC(C)n1nc(-c2ccc3oc(N)nc3c2)c2c(N)ncnc21", "note": "+ C=CC(=O)N1CCN(c2nc(OCC3CCCN3C)nc3c(F)c(-c4nc(N)cc(C)c4C(F)(F)F)c(Cl)cc23)C(C)C1", "viability, T/C": 141}
    ]},
    {"test_system": "521955-158-R2-J5-PDC complex spheroids, viability", "assay": "Anticancer human tumor 521955-158-R2-J5-PDC cell line growth inhibition [RAS]", "conditions": "second compound 0.1 µM; first compound 0.00316 µM; hits give low values", "procedure,_shortened": "as §1", "units": {"viability, T/C": "%"}, "values": [
      {"smiles": "CC(C)n1nc(-c2ccc3oc(N)nc3c2)c2c(N)ncnc21", "note": "+ C=CC(=O)N1CCN(c2nc(OCC3CCCN3C)nc3c(F)c(-c4nc(N)cc(C)c4C(F)(F)F)c(Cl)cc23)C(C)C1", "viability, T/C": 109},
      {"smiles": "O=C(c1ccc(F)c(F)c1Nc1ccc(I)cc1F)N1CC(O)([C@@H]2CCCCN2)C1", "note": "+ C=CC(=O)N1CCN(c2nc(OCC3CCCN3C)nc3c(F)c(-c4nc(N)cc(C)c4C(F)(F)F)c(Cl)cc23)C(C)C1", "viability, T/C": 65}
    ]},
    {"test_system": "521955-158-R2-J5-PDC complex spheroids, viability", "assay": "Anticancer human tumor 521955-158-R2-J5-PDC cell line growth inhibition [RAS]", "conditions": "second compound 0.1 µM; first compound 0.01 µM; hits give low values", "procedure,_shortened": "as §1", "units": {"viability, T/C": "%"}, "values": [
      {"smiles": "CC(C)n1nc(-c2ccc3oc(N)nc3c2)c2c(N)ncnc21", "note": "+ C=CC(=O)N1CCN(c2nc(OCC3CCCN3C)nc3c(F)c(-c4nc(N)cc(C)c4C(F)(F)F)c(Cl)cc23)C(C)C1", "viability, T/C": 79.7},
      {"smiles": "O=C(c1ccc(F)c(F)c1Nc1ccc(I)cc1F)N1CC(O)([C@@H]2CCCCN2)C1", "note": "+ C=CC(=O)N1CCN(c2nc(OCC3CCCN3C)nc3c(F)c(-c4nc(N)cc(C)c4C(F)(F)F)c(Cl)cc23)C(C)C1", "viability, T/C": 61.3}
    ]},
    {"test_system": "521955-158-R2-J5-PDC complex spheroids, viability", "assay": "Anticancer human tumor 521955-158-R2-J5-PDC cell line growth inhibition [RAS]", "conditions": "second compound 0.1 µM; first compound 0.0316 µM; hits give low values", "procedure,_shortened": "as §1", "units": {"viability, T/C": "%"}, "values": [
      {"smiles": "CC(C)NCC(C(=O)N1CCN(c2ncnc3c2C(C)CC3O)CC1)c1ccc(Cl)cc1", "note": "(stereo unspecified) + C=CC(=O)N1CCN(c2nc(OCC3CCCN3C)nc3c(F)c(-c4nc(N)cc(C)c4C(F)(F)F)c(Cl)cc23)C(C)C1", "viability, T/C": 88.7},
      {"smiles": "CC(C)n1nc(-c2ccc3oc(N)nc3c2)c2c(N)ncnc21", "note": "+ C=CC(=O)N1CCN(c2nc(OCC3CCCN3C)nc3c(F)c(-c4nc(N)cc(C)c4C(F)(F)F)c(Cl)cc23)C(C)C1", "viability, T/C": 42.6},
      {"smiles": "CC(Nc1ccc2c(c1)OCCn1cc(N3C(=O)OCC3C(F)F)nc1-2)C(N)=O", "note": "(stereo unspecified) + C=CC(=O)N1CCN(c2nc(OCC3CCCN3C)nc3c(F)c(-c4nc(N)cc(C)c4C(F)(F)F)c(Cl)cc23)C(C)C1", "viability, T/C": 67.3},
      {"smiles": "C[C@@H](NC(=O)c1ncnc(N)c1Cl)c1ncc(C(=O)Nc2cc(C(F)(F)F)c(Cl)cn2)s1", "note": "+ C=CC(=O)N1CCN(c2nc(OCC3CCCN3C)nc3c(F)c(-c4nc(N)cc(C)c4C(F)(F)F)c(Cl)cc23)C(C)C1", "viability, T/C": 144},
      {"smiles": "O=C(c1ccc(F)c(F)c1Nc1ccc(I)cc1F)N1CC(O)([C@@H]2CCCCN2)C1", "note": "+ C=CC(=O)N1CCN(c2nc(OCC3CCCN3C)nc3c(F)c(-c4nc(N)cc(C)c4C(F)(F)F)c(Cl)cc23)C(C)C1", "viability, T/C": 44.8}
    ]}
  ]
}
